Paper PMC7340254, “Structure-based screening of binding affinities via small-angle X-ray scattering” (IUCrJ, 2020)
Where two headings read alike, the source gives them in different places. Values belong to the molecule of their own block, whether it stands above or below them.

Columns and labels:
[1] = biological target: T1, aspartate/glutamate-binding protein (DEBP) (Escherichia coli, UniProt P37902); assay: SAXS-based ligand titration; set-up: species or system E. coli
T1 construct: made in house; host or cells: E. coli BL21(DE3)
T1 sequence (P37902 28-302): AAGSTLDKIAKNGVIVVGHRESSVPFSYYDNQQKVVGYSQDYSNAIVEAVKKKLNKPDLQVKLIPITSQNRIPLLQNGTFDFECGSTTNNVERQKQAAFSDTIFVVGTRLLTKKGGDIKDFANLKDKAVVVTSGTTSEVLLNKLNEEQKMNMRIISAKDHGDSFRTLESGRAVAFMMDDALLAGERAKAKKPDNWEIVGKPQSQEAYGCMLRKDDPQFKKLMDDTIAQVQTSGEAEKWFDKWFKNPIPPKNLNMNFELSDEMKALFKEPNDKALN
Description: Their preliminary results have been excluded from this report.

[2] = biological target: DEBP; set-up: method as in Clifton & Jackson (2016); conditions: ref Clifton & Jackson (2016), read-out: K D (ITC, literature); cited from earlier work
[3] = biological target: GlnBP; set-up: method as in Clifton & Jackson (2016); conditions: ref Clifton & Jackson (2016), read-out: K D (ITC, literature); cited from earlier work
[4] = biological target: HisBP; set-up: method as in Paul et al. (2016); conditions: ref Paul et al. (2016), read-out: K D (ITC, literature); cited from earlier work
[5] = biological target: T2, histidine-binding protein (HisBP) (Escherichia coli, UniProt P0AEU0); assay: biochemical
T2 sequence (P0AEU0 23-260): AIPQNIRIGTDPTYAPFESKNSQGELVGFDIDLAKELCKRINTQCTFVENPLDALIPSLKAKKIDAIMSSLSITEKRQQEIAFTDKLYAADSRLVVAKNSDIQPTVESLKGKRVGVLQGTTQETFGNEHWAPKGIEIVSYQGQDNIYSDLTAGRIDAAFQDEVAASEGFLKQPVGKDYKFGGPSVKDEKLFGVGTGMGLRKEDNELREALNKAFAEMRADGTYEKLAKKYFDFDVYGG
Description: All ITC measurements were conducted on a Malvern MicroCal PEAQ ITC at 20°C with stirring at 200 rev min^−1 using the same buffer as in SAXS measurements. The cell was initially loaded with 200 µl of 20 µM protein with an initial ligand concentration of 200 µM in the syringe to quantify His:HisBP binding. This was further adjusted in subsequent runs to resolve weaker interactions as necessary.

[6] = biological target: T2, histidine-binding protein (HisBP); assay: biochemical; remark: listed apart in the source
Description: (§1) Titrations were conducted at fixed protein concentrations to exclude signal-to-noise factors. An initial mass concentration of 2.0 or 4.0 mg ml^−1 was employed in prospective experiments, then scaled to 2.0, 1.0, 0.5 and 0.25 mg ml^−1 in later concentration-variation studies. […] A total of eight beamline experiments were conducted, using the automated sample changing environments available on site, operated in constant-flow mode: three times at ESRF BM29, three at DESY P12, once at Australian Synchrotron SAXS/WAXS and once at Diamond B21. […] Furthermore, experiments at ESRF BM29 and Diamond B21 were carried out on site, while the DESY P12 experiment was carried out by mail-in. For these measurements, samples were prepared by pipetting ligand–protein mixtures onto 96-well plates prior to transport. As for the Australian Synchrotron measurements, apo–HisBP was lyophilized in its final buffer and reconstituted on site using pure H2O and then mixed with the ligands in 96-well plates.
(§2) Buffer-subtracted intensities provided from respective synchrotron pipelines were used as starting points for analysis. […] Thus, an intermediate value of 7.2 nm was fixed for all computations involving D max including V R.
(§3) This was used to assist in locating data points affected by sample handling errors or measurement failures, along with detectable aggregation. The ideal minimum angle after removal of parasitic scattering is 0.1–0.15 nm^−1, although a more conservative cutoff was used to collectively eliminate residual aggregation. The maximum usable q was determined by visual inspection of noise. The final ranges used across all HisBP beamline sessions were: 0.2–2.0 nm^−1 at 20 µM and below, 0.25–2.5 nm^−1 at 40 µM, and 0.3–3 nm^−1 above 80 µM. The q-ranges for DEBP and GlnBP were set to 0.1–2.8 nm^−1.
(§4) A common scattering reference is created per HisBP concentration and per beamline experiment by averaging apo protein replicates after discarding outliers. This reference is used for both V R and χlin computations.
(§5) To fit binding curves against metrics, we consider all titrations conducted per protein concentration per beamline experiment as a single set, after removing data points resulting from aggregation, preparation errors or measurement errors. […] Since the two-state binding curve at constant [R] cannot effectively discriminate between K D values much larger or smaller than [R], fitted K D values are limited to within four orders of magnitude of the receptor concentration (cf. Fig. S1). […] Error bars indicate σ of logK D from the ensemble of replicate predictions. For metrics where uncertainty was not computed (V R and V P), the uncertainty was estimated by single-point removal, where K D was recomputed after removal of each titration point. The σ of the resulting replicates are taken as the σ of logK D. To eliminate cases where the fitting process fails due to ill-constrained parameters, replicates were discarded if the fitted apo–holo differences were >3σ from the mean value of all replicates.

[7] = biological target: T2, histidine-binding protein (HisBP); conditions: His:HisBP
Description: as §1, §2, §3, §4, §5

[8] = K D fitted to SAXS V R titration curves, AustSynch, 20s exposure, […] 10^13 photons, HisBP 19 µM
[9] = K D fitted to SAXS V R titration curves, AustSynch, 20s exposure, […] 10^13 photons, HisBP […] µM
[10] = K D fitted to SAXS V R titration curves, AustSynch, 20s exposure, […] 10^13 photons, HisBP 76 µM
[11] = K D fitted to SAXS V R titration curves, DESY, 4s exposure, […] 10^13 photons, HisBP 10 µM
[12] = K D fitted to SAXS V R titration curves, DESY, 4s exposure, […] 10^13 photons, HisBP 20 µM
[13] = K D fitted to SAXS V R titration curves, DESY, 4s exposure, […] 10^13 photons, HisBP 40 µM
[14] = K D fitted to SAXS V R titration curves, DESY, 4s exposure, […] 10^13 photons, HisBP 80 µM
[15] = K D fitted to SAXS V R titration curves, Diamond, 40s exposure, […] 10^14 photons, HisBP 10 µM
[16] = K D fitted to SAXS V R titration curves, Diamond, 40s exposure, […] 10^14 photons, HisBP 20 µM
[17] = K D fitted to SAXS V R titration curves, Diamond, 40s exposure, […] 10^14 photons, HisBP 40 µM
[18] = K D fitted to SAXS V R titration curves, Diamond, 40s exposure, […] 10^14 photons, HisBP 80 µM
[19] = K D fitted to SAXS V R titration curves, ESRF, 5s exposure, 3.0 × 10^12 photons, HisBP 160 µM
[20] = KD fitted to SAXS Rg curves, AustSynch, 20s exposure, HisBP […] µM
[21] = KD fitted to SAXS Rg curves, AustSynch, 20s exposure, HisBP 76 µM
[22] = KD fitted to SAXS Rg curves, DESY, 4s exposure, HisBP 10 µM
[23] = KD fitted to SAXS Rg curves, DESY, 4s exposure, HisBP 20 µM
[24] = KD fitted to SAXS Rg curves, DESY, 4s exposure, HisBP 40 µM
[25] = KD fitted to SAXS Rg curves, DESY, 4s exposure, HisBP 80 µM
[26] = KD fitted to SAXS Rg curves, ESRF, 5s exposure, HisBP 160 µM
[27] = KD fitted to SAXS Vc curves, AustSynch, 20s exposure, HisBP […] µM
[28] = KD fitted to SAXS Vc curves, AustSynch, 20s exposure, HisBP 76 µM
[29] = KD fitted to SAXS Vc curves, DESY, 4s exposure, HisBP 40 µM
[30] = KD fitted to SAXS Vc curves, DESY, 4s exposure, HisBP 80 µM
[31] = KD fitted to SAXS Vc curves, ESRF, 5s exposure, HisBP 160 µM
[32] = KD fitted to SAXS χlin. curves, AustSynch, 20s exposure, HisBP […] µM
[33] = KD fitted to SAXS χlin. curves, AustSynch, 20s exposure, HisBP 76 µM
[34] = KD fitted to SAXS χlin. curves, DESY, 4s exposure, HisBP 10 µM
[35] = KD fitted to SAXS χlin. curves, DESY, 4s exposure, HisBP 20 µM
[36] = KD fitted to SAXS χlin. curves, DESY, 4s exposure, HisBP 40 µM
[37] = KD fitted to SAXS χlin. curves, DESY, 4s exposure, HisBP 80 µM
[38] = KD fitted to SAXS χlin. curves, Diamond, 40s exposure, HisBP 40 µM
[39] = KD fitted to SAXS χlin. curves, Diamond, 40s exposure, HisBP 80 µM
[40] = KD fitted to SAXS χlin. curves, ESRF, 5s exposure, HisBP 152 µM

SMILES: NC(=O)C[C@H](N)C(=O)O [Asn]
binding suggested by SAXS titrations ([1]; DEBP, 2 mg ml^−1, 10^12 photons): unexpected binding

SMILES: N[C@@H](CC(=O)O)C(=O)O [Asp, aspartate]
Kd [2]: 1.73 ± 0.49 µM

SMILES: NC(=O)CC[C@H](N)C(=O)O [Gln, glutamine]
Kd [3]: 0.106 ± 0.065 µM

SAXS R g Exp. (saturated) ([1]; Glu:DEBP, ligand-excess conditions): 20.6 ± 1.3 Å | SAXS ΔR g ([1]; Glu:DEBP, saturated versus apo): −2.6 Å
SMILES: N[C@@H](CCC(=O)O)C(=O)O [Glu, glutamate]
Kd [2]: 0.334 ± 0.12 µM

SMILES: N[C@@H](Cc1c[nH]cn1)C(=O)O [His, histidine]
Kd [4]: 0.064 ± 0.01 µM | Kd [5]: 0.048 ± 0.0052 µM | Kd [6, 8]: 0.062 ± 0.028 µM | Kd [6, 9]: 1.5 ± 0.7 µM | Kd [6, 10]: 3.6 ± 0.74 µM | Kd [6, 11]: 84 ± 68 µM | Kd [6, 12]: 1 ± 0.19 µM | Kd [6, 13]: 3.7 ± 0.58 µM | Kd [6, 14]: 6.4 ± 1.1 µM | Kd [6, 15]: 0.0014 ± 0.00092 µM | Kd [6, 16]: 0.0051 ± 0.0041 µM | Kd [6, 17]: 0.013 ± 0.011 µM | Kd [6, 18]: 1.3 ± 0.5 µM | Kd ([6]; K D fitted to SAXS V R titration curves, ESRF, 5s exposure, 3.0 × 10^12 photons, HisBP […] µM): 0.24 ± 0.14 µM | Kd [6, 19]: 0.37 ± 0.47 µM | Kd [6, 20]: 6.3 ± 0.87 µM | Kd [6, 21]: 1.7 ± 0.87 µM | Kd [6, 22]: 100 ± 140 µM | Kd [6, 23]: 0.0027 ± 0.0047 µM | Kd [6, 24]: 4.2 ± 2.4 µM | Kd [6, 25]: 8.2 ± 1.8 µM | Kd ([6]; KD fitted to SAXS Rg curves, Diamond, 40s exposure, HisBP 10 µM): 0.018 µM | Kd ([6]; KD fitted to SAXS Rg curves, Diamond, 40s exposure, HisBP 20 µM): 0.015 µM | Kd ([6]; KD fitted to SAXS Rg curves, Diamond, 40s exposure, HisBP 80 µM): 2.2 ± 3.1 µM | Kd ([6]; KD fitted to SAXS Rg curves, ESRF, 5s exposure, HisBP […] µM): 0.16 µM | Kd [6, 26]: 0.61 ± 0.12 µM | Kd ([6]; KD fitted to SAXS Vc curves, AustSynch, 20s exposure, HisBP 19 µM): 0.16 µM | Kd [6, 27]: 5.3 ± 3.7 µM | Kd [6, 28]: 25 ± 8.1 µM | Kd [6, 29]: 19 µM | Kd [6, 30]: 5.8 µM | Kd ([6]; KD fitted to SAXS Vc curves, Diamond, 40s exposure, HisBP 80 µM): 9.9 µM | Kd ([6]; KD fitted to SAXS Vc curves, ESRF, 5s exposure, HisBP 7.6 µM): 2.8 µM | Kd ([6]; KD fitted to SAXS Vc curves, ESRF, 5s exposure, HisBP […] µM): 200 ± 490 µM | Kd [6, 31]: 0.88 ± 2.4 µM | Kd ([6]; KD fitted to SAXS χlin. curves, AustSynch, 20s exposure, HisBP 19 µM): 1.2 µM | Kd [6, 32]: 4.5 ± 1.5 µM | Kd [6, 33]: 5.1 ± 0.75 µM | Kd [6, 34]: 4.4 ± 2.8 µM | Kd [6, 35]: 2.9 ± 1.5 µM | Kd [6, 36]: 13 ± 3.5 µM | Kd [6, 37]: 15 ± 1.9 µM | Kd ([6]; KD fitted to SAXS χlin. curves, Diamond, 40s exposure, HisBP 20 µM): 0.07 µM | Kd [6, 38]: 4.3 ± 4.7 µM | Kd [6, 39]: 20 ± 3.4 µM | Kd ([6]; KD fitted to SAXS χlin. curves, ESRF, 5s exposure, HisBP 7.6 µM): 0.5 µM | Kd ([6]; KD fitted to SAXS χlin. curves, ESRF, 5s exposure, HisBP […] µM): 0.099 µM | Kd [6, 40]: 0.32 ± 0.051 µM | SAXS R g Exp. (saturated) ([7]; ligand-excess conditions): 18.3 ± 1.0 Å | SAXS ΔR g ([7]; saturated versus apo): −1.3 Å

SMILES: NCCCC[C@H](N)C(=O)O [Lys, lysine]
Kd [4]: 19.5 ± 6 µM | Kd [5]: 62 ± 11 µM | Kd [6, 8]: 110 ± 10 µM | Kd [6, 9]: 32 ± 4.6 µM | Kd [6, 10]: 95 ± 11 µM | Kd [6, 11]: 0.0023 ± 0.0016 µM | Kd [6, 12]: 61 ± 6.4 µM | Kd [6, 13]: 720 ± 350 µM | Kd [6, 14]: 58 ± 7.5 µM | Kd [6, 15]: 230 ± 200 µM | Kd [6, 16]: 47 ± 3.6 µM | Kd [6, 17]: 320 ± 210 µM | Kd [6, 18]: 89 ± 9.6 µM | Kd [6, 19]: 49 ± 4.1 µM | Kd ([6]; KD fitted to SAXS Rg curves, AustSynch, 20s exposure, HisBP 19 µM): 460 ± 230 µM | Kd [6, 20]: 340 ± 120 µM | Kd [6, 21]: 0.031 ± 0.025 µM | Kd [6, 22]: 1.3 ± 2.5 µM | Kd [6, 23]: 38 ± 28 µM | Kd [6, 24]: 0.086 µM | Kd [6, 25]: 36 ± 42 µM | Kd ([6]; KD fitted to SAXS Rg curves, Diamond, 40s exposure, HisBP 40 µM): 1500 ± 3200 µM | Kd [6, 26]: 71 ± 8.9 µM | Kd [6, 27]: 450 ± 510 µM | Kd [6, 28]: 9.5 µM | Kd ([6]; KD fitted to SAXS Vc curves, DESY, 4s exposure, HisBP 10 µM): 0.18 µM | Kd ([6]; KD fitted to SAXS Vc curves, DESY, 4s exposure, HisBP 20 µM): 44 µM | Kd [6, 29]: 2.8 µM | Kd [6, 30]: 9 µM | Kd ([6]; KD fitted to SAXS Vc curves, Diamond, 40s exposure, HisBP 40 µM): 57 µM | Kd [6, 31]: 280 ± 450 µM | Kd [6, 32]: 150 ± 46 µM | Kd [6, 33]: 130 ± 14 µM | Kd [6, 34]: 0.46 ± 0.5 µM | Kd [6, 35]: 2.1 ± 3.2 µM | Kd [6, 36]: 160 ± 230 µM | Kd [6, 37]: 150 ± 40 µM | Kd [6, 38]: 4500 ± 3400 µM | Kd [6, 39]: 260 ± 150 µM | Kd [6, 40]: 180 ± 15 µM

SMILES: NCCC[C@H](N)C(=O)O [Orn, ornithine]
Kd [4]: 72 ± 4 µM
